From ChEMBL document CHEMBL4118022, “Unguiculin A and Ptilomycalins E-H, Antimalarial Guanidine Alkaloids from the Marine Sponge Monanchora unguiculata” (J Nat Prod, 2017)

Key:
[1] = Selectivity index, ratio of IC50 for human KB cells to IC50 for Plasmodium falciparum 3D7 erythrocytic stage; format: toxicity; conditions: KB cells versus Plasmodium falciparum 3D7 erythrocytic stage, read-out: Ratio IC50
KB = test: Cytotoxicity against human KB cells after 72 hrs by CellTiter96 AQueous one solution assay; format: cell-based
Plasmodium falciparum = test: Antiplasmodial activity against Plasmodium falciparum 3D7 erythrocytic stage assessed as reduction in parasitic LDH activity measured after 48 hrs by colorimetric method; format: functional, organism-based; conditions: 3D7, 48 h

Compound | selectivity ratio [1] | IC50 (KB) [nM] | IC50 (Plasmodium falciparum) [nM]
CC[C@@H]1C=CCC[C@]2(C[C@H]3CC[C@H]4[C@@H](C(=O)OCCCCCCCCCCCCCCCC5=NCCCN5CC(O)CCN)[C@@]5(CCC[C@H](C)O5)NC(=N2)N34)O1 (some centres undefined) | 4.9 | 1170 | 240
CC[C@@H]1C=CCC[C@]2(C[C@H]3CC[C@H]4[C@@H](C(=O)OCCCCCCCCCCCCCCCC(=O)N(CCCCNC(=N)N)CCCNC(=N)N)[C@@]5(CCC[C@H](C)O5)NC(=N2)N34)O1 | 2.4 | 850 | 350
CC[C@@H]1C=CCC[C@]2(C[C@H]3CC[C@H]4[C@@H](C(=O)OCCCCCCCCCCCCCCCC(=O)N(CCCCNC(=N)N)CCCNC=O)[C@@]5(CCC[C@H](C)O5)NC(=N2)N34)O1 | 7 | 1610 | 230
CCCCCCCCCCCCCCCC(=O)N(CCCCNC(=N)N)CCCNC(=N)N | 0.6 | 7660 | 12900
CC[C@@H]1C=CCC[C@]2(C[C@H]3CC[C@H]4[C@@H](C(=O)OCCCCCCCCCCCCCCCC(=O)O)[C@@]5(CCC[C@H](C)O5)NC(=N2)N34)O1 | – | 8800 | –
C[C@@H]1CC[C@H]2[C@@H](C)C(=O)O[C@@H]3O[C@@]4(C)CC[C@@H]1[C@]32OO4 [ARTEMISININ] | – | – | 4
